Test results taken from US10881679B2, “Application of a phillyrin/phillygeninin composition in preparing a medicine or health care product for alleviating or/and treating viral diseases, and medicine or health care product for treating viral diseases” (priority 2014, dated 2021).
Marks after values point to notes of the source that are not given here.

What was measured:
parainfluenza virus [1] = format: in vivo, Kunming mice; settings: 19.5 mg/kg/d i.g. 5 days
parainfluenza virus [2] = format: in vivo, Kunming mice; settings: 19.5 mg/kg/d i.g. 5 days; remark: listed apart in the source
enterovirus EV71 = experiment: Impact on virus-induced cytopathic effect in Vero cells (MTT): EV71; format: cell-based; settings: EV71 100TCID50, Vero, 72 h; drug g/L as Table 1-2
[3] = tested on: Coxsackievirus A16 (CoxA16); experiment: Impact on virus-induced cytopathic effect in Vero cells (MTT): CoxA16; format: cell-based; settings: CoxA16 100TCID50, Vero, 72 h; drug g/L as Table 1-2
[4] = tested on: Coxsackie virus B3 (CVB3); experiment: Impact on virus-induced cytopathic effect in Vero cells (MTT): CVB3; format: cell-based; settings: CVB3 100TCID50, Vero, 72 h; drug g/L as Table 1-2
influenza virus [5] = experiment: Impact on virus-induced cytopathic effect in Vero cells (MTT): influenza virus; format: cell-based; settings: influenza virus 100TCID50, Vero, 72 h; drug g/L (Table 1-2): phillyrin 0.01, Phillygeninin 0.02, compositions A, B 0.01, Ribavirin 0.70, oseltamivir phosphate 0.30
influenza virus [6] = format: in vivo, Kunming mice; settings: 19.5 mg/kg/d i.g. 5 days
[7] = tested on: respiratory syncytial virus (RSV); experiment: Impact on virus-induced cytopathic effect in Vero cells (MTT): RSV; format: cell-based; settings: RSV 100TCID50, Vero, 72 h; drug g/L as Table 1-2
Vero cells = experiment: Cytotoxicity test (MTT) on Vero cells; format: cell-based, African green monkey; settings: 72 h
Procedure: Cytotoxicity test: the drugs were diluted according to the concentrations shown in table 1-1 for determination of cytotoxicity. […] In addition, 6 wells were set up as normal control group (without drugs) while another 6 pores as blank control group (medium only). Cells were grown in a 37° C. incubator under 5% CO2. […] After 72 h, 20 μL MTT solution (5 mg·mL^−1) was added into each well to continue incubation for 4 h. The culture medium in each well was sucked and discarded, 100 μL DMSO was added to each well. Then the culture was shaken for 5 min, measured OD value at 492 nm to calculate the cell survival ratio. The cell survival ratio was analyzed using a Probit regression model in SPSS 18.0 statistical software, and the maximal nontoxic concentration (TC0) and median toxic concentration (TC50) of drugs against Vero cells were calculated.

[8] = tested on: Herpes zoster simplex viruses type I (HSV-I); experiment: Impact on virus-induced cytopathic effect in Vero cells (MTT): HSV-I; format: cell-based; settings: HSV-I 100TCID50, Vero, 72 h; drug g/L as Table 1-2
adenovirus (ADV) = experiment: Impact on virus-induced cytopathic effect in Vero cells (MTT): ADV; format: cell-based; settings: ADV 100TCID50, Vero, 72 h; drug g/L as Table 1-2
influenza virus [9] = format: in vivo, Kunming mice; settings: 19.5 mg/kg/d i.g. 5 days; remark: listed apart in the source
parainfluenza virus [10] = experiment: Impact on virus-induced cytopathic effect in Vero cells (MTT): parainfluenza virus; format: cell-based; settings: parainfluenza virus 100TCID50, Vero, 72 h; drug g/L as Table 1-2

## CCOC(=O)C1=C[C@@H](OC(CC)CC)[C@H](NC(C)=O)[C@@H](N)C1 [oseltamivir phosphate]
Parainfluenza virus [1]
  Lung index: 1.243 ± 0.054
  Lung index inhibition rate: 21.85
Parainfluenza virus [2]
  Hemagglutination titer (InX): 22.05
  Inhibition rate (%) of hemagglutination titer: 33.40%
Enterovirus EV71
  antiviral effective rate (ER %): 51.86%
[3]
  antiviral effective rate (ER %): 2.95%
[4]
  antiviral effective rate (ER %): 1.64%
Influenza virus [5]
  antiviral effective rate (ER %): 81.76** %
Influenza virus [6]
  Hemagglutination titer (InX): 20.50 ± 1.123
  Inhibition rate (%) of hemagglutination titer: 36.73%
[7]
  antiviral effective rate (ER %): 37.60%
Vero cells
  half toxic concentration (TC50): 832 µg/mL
  maximal non-toxic concentration (TC0): 0.28 g/L
[8]
  antiviral effective rate (ER %): 66.56** %
Adenovirus (ADV)
  antiviral effective rate (ER %): 10.31%
Influenza virus [9]
  Lung index: 1.178 ± 0.066
  Lung index inhibition rate: 19.84
Parainfluenza virus [10]
  antiviral effective rate (ER %): 94.52** %
